Data reported in patent publication US10858360B2, “Tricyclic gyrase inhibitors” (priority 2011, dated 2020).
Converted amounts (≈) assume the structure as drawn. Like-named read-outs stand apart in the source and are kept apart here.

Columns and labels:
S. aureus ATCC 13709 = assay: MIC, S. aureus ATCC 13709 (Alamar Blue broth microdilution); format: cell-based; details: for MIC: Staphylococcus aureus, ATCC13709, S. aureus
E. coli ATCC 25922 = assay: MIC, E. coli ATCC 25922; format: cell-based; details: for MIC: Escherichia coli, ATCC25922, E. coli
[1] = Alamar Blue read after overnight incubation at 35° C.
[2] = S. aureus, Alamar Blue read after overnight incubation at 35° C.
[3] = E. coli, Alamar Blue read after overnight incubation at 35° C.

SMILES	MIC (S. aureus ATCC 13709; [1])	MIC (E. coli ATCC 25922; [1])	MIC Sa (S. aureus ATCC 13709)	MIC Ec (E. coli ATCC 25922)	also measured
CNc1cc(F)cc2c1[nH]c1nc(Oc3cnc(C)nc3)nc(-c3cccnc3N)c12 [4.448]	≤ 0.5 µg/mL	1 µg/mL (≈ 2.4 µM)	–	–	–
CNc1cc(F)cc2c1[nH]c1nc(Oc3cnc(C)nc3)nc(-c3cncnc3)c12 [4.449]	≤ 0.5 µg/mL	> 16 µg/mL	–	–	–
CNc1cc(F)cc2c1[nH]c1nc(Oc3cnc(C)nc3)nc(-c3cncc(N)c3)c12 [4.450]	≤ 0.5 µg/mL	2 µg/mL (≈ 4.8 µM)	–	–	–
CNc1cc(F)c(F)c2c1[nH]c1nc(Oc3cnc(C)nc3)nc(N3CC4(CC[C@H]4N)C3)c12 [5.01]	≤ 0.5 µg/mL	≤ 0.5 µg/mL	–	–	–
CNc1cc(F)c(F)c2c1[nH]c1nc(Oc3cnc(C)nc3)nc(N3CC4(CCC4N)C3)c12 (centres unmarked) [5.1]	–	–	–	–	MIC Sa (S. aureus ATCC 13709; [2]): ≤0.5 µg/mL; MIC Ec (E. coli ATCC 25922; [3]): ≤0.5 µg/mL
CNc1cc(F)c(F)c2c1[nH]c1nc(Oc3cnc(C)nc3)nc(N3CCC4(CC4N)C3)c12 (centres unmarked) [5.02]	–	–	–	–	MIC Sa (S. aureus ATCC 13709; [2]): ≤0.5 µg/mL; MIC Ec (E. coli ATCC 25922; [3]): ≤0.5 µg/mL
CNc1cc(F)c(F)c2c1[nH]c1nc(Oc3cnc(C)nc3)nc(N3CC4CC(N)C4C3)c12 (centres unmarked) [5.03]	–	–	–	–	MIC Sa (S. aureus ATCC 13709; [2]): ≤0.5 µg/mL; MIC Ec (E. coli ATCC 25922; [3]): ≤0.5 µg/mL
CNc1cc(F)c(F)c2c1[nH]c1nc(Oc3cnc(C)nc3)nc(N3CC(N)C4(CC4)C3)c12 (centres unmarked) [5.05]	–	–	–	–	MIC Sa (S. aureus ATCC 13709; [2]): ≤0.5 µg/mL; MIC Ec (E. coli ATCC 25922; [3]): ≤0.5 µg/mL
CNc1cc(F)c(F)c2c1[nH]c1nc(Oc3cnc(C)nc3)nc(N3CC(N)C3)c12 [5.06]	–	–	–	–	MIC Sa (S. aureus ATCC 13709; [2]): ≤0.5 µg/mL; MIC Ec (E. coli ATCC 25922; [3]): ≤0.5 µg/mL
CNc1cc(F)c(F)c2c1[nH]c1nc(Oc3cnc(N)nc3)nc(N3CC4(CCC4N)C3)c12 (centres unmarked) [5.07]	–	–	–	–	MIC Sa (S. aureus ATCC 13709; [2]): ≤0.5 µg/mL; MIC Ec (E. coli ATCC 25922; [3]): 1 µg/mL (≈ 2.21 µM)
CNc1cc(F)c(F)c2c1[nH]c1nc(Oc3cncnc3)nc(N3CC(N)C4(CC4)C3)c12 (centres unmarked) [5.09]	–	–	–	–	MIC Sa (S. aureus ATCC 13709; [2]): ≤0.5 µg/mL; MIC Ec (E. coli ATCC 25922; [3]): ≤0.5 µg/mL
CNc1cc(F)c(F)c2c1[nH]c1nc(Oc3cnc(CO)nc3)nc(N3C[C@H]4C[C@@H]3C[C@H]4N)c12 [5.14]	≤ 0.5 µg/mL	≤ 0.5 µg/mL	–	–	–
CNc1cc(F)c(F)c2c1[nH]c1nc(Oc3cnc4c(c3)ncn4C3CC3)nc(N3C[C@H]4C[C@@H]3C[C@H]4N)c12 [5.15]	≤ 0.5 µg/mL	1 µg/mL (≈ 1.93 µM)	–	–	–
CNc1c(F)ccc2c1[nH]c1nc(Oc3cnc(C)nc3)nc(N3CC[C@@H](N)C3)c12 [6.01]	≤ 0.5 µg/mL	1 µg/mL (≈ 2.45 µM)	–	–	–
CNc1c(F)ccc2c1[nH]c1nc(Oc3cncnc3)nc(N3CC4C(N)C4C3)c12 (centres unmarked) [6.02]	–	–	≤0.5 µg/mL	≤0.5 µg/mL	–
CNc1c(F)ccc2c1[nH]c1nc(Oc3cnc4cccnc4c3)nc(N3CC(N)C4(CC4)C3)c12 (centres unmarked) [6.03]	–	–	≤0.5 µg/mL	≤0.5 µg/mL	–
CNc1cc(C(F)(F)F)cc2c1[nH]c1nc(Oc3cnc(C)nc3)nc(N3CC4C(N)C4C3)c12 (centres unmarked) [6.10]	–	–	≤0.5 µg/mL	≤0.5 µg/mL	–
CNc1cc(Cl)cc2c1[nH]c1nc(Oc3cncnc3)nc(N3CCC4(CC4N)C3)c12 (centres unmarked) [6.11]	–	–	≤0.5 µg/mL	≤0.5 µg/mL	–
CNc1cc(Cl)cc2c1[nH]c1nc(Oc3cncnc3)nc(N3CC4(CC4N)C3)c12 (centres unmarked) [6.12]	–	–	≤0.5 µg/mL	≤0.5 µg/mL	–
CNc1cc(Cl)cc2c1[nH]c1nc(Oc3cnc(C)nc3)nc(N3CC4CCCNC4C3)c12 (centres unmarked) [6.13]	–	–	≤0.5 µg/mL	≤0.5 µg/mL	–
CNc1cc(Cl)cc2c1[nH]c1nc(Oc3cnc4cccnc4c3)nc(N3CCCC4(CC4N)C3)c12 (centres unmarked) [6.14]	–	–	≤0.5 µg/mL	1 µg/mL (≈ 2 µM)	–
CNc1cc(Cl)cc2c1[nH]c1nc(Oc3cnc(N)nc3)nc(N3CCC4(CC4N)C3)c12 (centres unmarked) [6.15]	–	–	≤0.5 µg/mL	≤0.5 µg/mL	–

SMILES	MIC (S. aureus ATCC 13709; [1])	MIC (E. coli ATCC 25922; [1])	MIC Sa (S. aureus ATCC 13709)	MIC Ec (E. coli ATCC 25922)	also measured
CNc1cc(Cl)cc2c1[nH]c1nc(Oc3cnc(N)nc3)nc(N3CC4CC(N)C4C3)c12 (centres unmarked) [6.16]	–	–	≤0.5 µg/mL	1 µg/mL (≈ 2.21 µM)	–
CNc1cc(Cl)cc2c1[nH]c1nc(Oc3cnc(N)nc3)nc(N3CC4C(N)C4C3)c12 (centres unmarked) [6.17]	–	–	≤0.5 µg/mL	≤0.5 µg/mL	–
CNc1cc(F)c(F)c2c1[nH]c1nc(Oc3cncnc3)nc(N3CC4C(N)C4C3)c12 (centres unmarked) [6.19]	–	–	>16 µg/mL	>16 µg/mL	–
CNc1cc(F)c(C)c2c1[nH]c1nc(Oc3cnc(C)nc3)nc(N3CC4(CCC4N)C3)c12 (centres unmarked) [6.20]	–	–	4 µg/mL (≈ 8.92 µM)	>16 µg/mL	–
CNc1cc(F)c(C)c2c1[nH]c1nc(Oc3cnc(C)nc3)nc(NCCCN)c12 [6.21]	–	–	>16 µg/mL	>16 µg/mL	–
CNc1cc(F)c(C)c2c1[nH]c1nc(Oc3cnc(C)nc3)nc(NC3CCCCC3N)c12 (centres unmarked) [6.22]	–	–	>16 µg/mL	>16 µg/mL	–
CNc1ccc(F)c2c1[nH]c1nc(Oc3cnc(N)nc3)nc(C3CC4C(N)C4C3)c12 (centres unmarked) [6.25]	≤ 0.5 µg/mL	≤ 0.5 µg/mL	–	–	–
CNc1cc(C)cc2c1[nH]c1nc(Oc3cnc(C)nc3)nc(N3CC4C(N)C4C3)c12 (centres unmarked) [6.26]	–	–	≤0.5 µg/mL	1 µg/mL (≈ 2.4 µM)	–
CNc1cc(C)cc2c1[nH]c1nc(Oc3cncnc3)nc(N3CC4C(N)C4C3)c12 (centres unmarked) [6.27]	–	–	≤0.5 µg/mL	1 µg/mL (≈ 2.48 µM)	–
CNc1nccc2c1[nH]c1nc(Sc3cnc4nccnc4c3)nc(N3CC[C@@H](N)C3)c12 [7.01]	8 µg/mL (≈ 18 µM)	> 64 µg/mL	–	–	–
CNc1nccc2c1[nH]c1nc(Oc3cncnc3)nc(N3CC[C@@H](N)C3)c12 [7.02]	> 64 µg/mL	32 µg/mL (≈ 84.8 µM)	–	–	–
COc1nccc2c1[nH]c1nc(Sc3cnc4cccnc4c3)nc(N3CC4C(N)C4C3)c12 (centres unmarked) [7.03]	2 µg/mL (≈ 4.38 µM)	> 64 µg/mL	–	–	–
CNc1ncnc2c1[nH]c1nc(Oc3cncc(F)c3)nc(N3CC4C(N)C4C3)c12 (centres unmarked) [7.04]	8 µg/mL (≈ 19.6 µM)	32 µg/mL (≈ 78.5 µM)	–	–	–
CNc1ncnc2c1[nH]c1nc(Oc3cnc(C)nc3)nc(N3CC4C(N)C4C3)c12 (centres unmarked) [7.05]	8 µg/mL (≈ 19.8 µM)	64 µg/mL (≈ 158 µM)	–	–	–
CNc1ncnc2c1[nH]c1nc(Oc3cncc(F)c3)nc(N3CC(N)C4(CC4)C3)c12 (centres unmarked) [7.06]	8 µg/mL (≈ 19 µM)	64 µg/mL (≈ 152 µM)	–	–	–
CNc1ncnc2c1[nH]c1nc(Oc3cncc(F)c3)nc(N3CCC4(CC4N)C3)c12 (centres unmarked) [7.07]	16 µg/mL (≈ 38 µM)	> 64 µg/mL	–	–	–
CNc1ncnc2c1[nH]c1nc(Oc3cnc(C)nc3)nc(N3CC(N)C4(CC4)C3)c12 (centres unmarked) [7.08]	16 µg/mL (≈ 38.2 µM)	> 64 µg/mL	–	–	–
CNc1ncnc2c1[nH]c1nc(Oc3cnc(C)nc3)nc(N3CCC4(CC4N)C3)c12 (centres unmarked) [7.09]	8 µg/mL (≈ 19.1 µM)	> 64 µg/mL	–	–	–
CNc1ncnc2c1[nH]c1nc(Oc3cncnc3)nc(Oc3cncnc3)c12 [7.10]	> 64 µg/mL	> 64 µg/mL	–	–	–
CNc1ncnc2c1[nH]c1nc(-c3cncnc3)nc(N3CC4C(N)C4C3)c12 (centres unmarked) [7.11]	> 64 µg/mL	> 64 µg/mL	–	–	–
CNc1ncnc2c1[nH]c1nc(Oc3cnc(C)nc3)nc(N3CCC(CN)C3)c12 (centres unmarked) [7.12]	> 64 µg/mL	> 64 µg/mL	–	–	–
